Measurements published in ChEMBL document CHEMBL1154202, “Arylcarboxyamino-substituted diaryl ureas as potent and selective FLT3 inhibitors” (Bioorg Med Chem Lett, 2009).
Activity calls are given as the source filed them. No cut-off for these calls is given here.

Columns and labels:
MV4-11 [1] = assay: Antitumor activity against human MV411 cells assessed as inhibition of cell proliferation; assay type: functional, cell-based
[2] = target: T1, Receptor-type tyrosine-protein kinase FLT3 (Homo sapiens, UniProt P36888)
T1 sequence (P36888 whole entry): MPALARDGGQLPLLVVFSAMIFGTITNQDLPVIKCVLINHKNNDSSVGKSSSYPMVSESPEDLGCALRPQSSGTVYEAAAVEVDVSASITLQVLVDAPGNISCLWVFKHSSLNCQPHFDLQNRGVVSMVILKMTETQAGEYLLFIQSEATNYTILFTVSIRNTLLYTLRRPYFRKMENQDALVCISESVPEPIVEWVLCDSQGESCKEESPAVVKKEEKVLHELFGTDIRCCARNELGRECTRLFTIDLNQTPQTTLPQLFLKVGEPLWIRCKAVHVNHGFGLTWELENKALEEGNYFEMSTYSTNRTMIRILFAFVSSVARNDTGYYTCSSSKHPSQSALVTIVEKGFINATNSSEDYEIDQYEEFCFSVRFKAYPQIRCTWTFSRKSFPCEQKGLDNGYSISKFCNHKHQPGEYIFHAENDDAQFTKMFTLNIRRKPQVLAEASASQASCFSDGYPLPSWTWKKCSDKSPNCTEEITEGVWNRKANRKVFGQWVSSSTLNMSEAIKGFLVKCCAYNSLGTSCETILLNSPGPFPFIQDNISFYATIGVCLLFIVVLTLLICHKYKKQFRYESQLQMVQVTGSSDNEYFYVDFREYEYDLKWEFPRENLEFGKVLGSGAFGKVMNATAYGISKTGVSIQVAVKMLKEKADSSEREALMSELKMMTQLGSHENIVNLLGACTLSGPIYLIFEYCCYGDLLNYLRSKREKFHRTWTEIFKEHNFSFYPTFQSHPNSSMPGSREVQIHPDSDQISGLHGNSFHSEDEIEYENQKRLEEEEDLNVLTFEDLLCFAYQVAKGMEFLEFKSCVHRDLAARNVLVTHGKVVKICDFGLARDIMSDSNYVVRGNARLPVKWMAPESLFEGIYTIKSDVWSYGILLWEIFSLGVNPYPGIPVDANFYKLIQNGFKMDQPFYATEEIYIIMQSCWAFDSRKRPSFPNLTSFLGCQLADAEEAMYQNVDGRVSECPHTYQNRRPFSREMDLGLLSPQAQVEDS

[3] = target: Vascular endothelial growth factor receptor 2 (Homo sapiens, UniProt P35968); assay: Binding affinity to VEGFR2
Vascular endothelial growth factor receptor 2, sequence (P35968 whole entry): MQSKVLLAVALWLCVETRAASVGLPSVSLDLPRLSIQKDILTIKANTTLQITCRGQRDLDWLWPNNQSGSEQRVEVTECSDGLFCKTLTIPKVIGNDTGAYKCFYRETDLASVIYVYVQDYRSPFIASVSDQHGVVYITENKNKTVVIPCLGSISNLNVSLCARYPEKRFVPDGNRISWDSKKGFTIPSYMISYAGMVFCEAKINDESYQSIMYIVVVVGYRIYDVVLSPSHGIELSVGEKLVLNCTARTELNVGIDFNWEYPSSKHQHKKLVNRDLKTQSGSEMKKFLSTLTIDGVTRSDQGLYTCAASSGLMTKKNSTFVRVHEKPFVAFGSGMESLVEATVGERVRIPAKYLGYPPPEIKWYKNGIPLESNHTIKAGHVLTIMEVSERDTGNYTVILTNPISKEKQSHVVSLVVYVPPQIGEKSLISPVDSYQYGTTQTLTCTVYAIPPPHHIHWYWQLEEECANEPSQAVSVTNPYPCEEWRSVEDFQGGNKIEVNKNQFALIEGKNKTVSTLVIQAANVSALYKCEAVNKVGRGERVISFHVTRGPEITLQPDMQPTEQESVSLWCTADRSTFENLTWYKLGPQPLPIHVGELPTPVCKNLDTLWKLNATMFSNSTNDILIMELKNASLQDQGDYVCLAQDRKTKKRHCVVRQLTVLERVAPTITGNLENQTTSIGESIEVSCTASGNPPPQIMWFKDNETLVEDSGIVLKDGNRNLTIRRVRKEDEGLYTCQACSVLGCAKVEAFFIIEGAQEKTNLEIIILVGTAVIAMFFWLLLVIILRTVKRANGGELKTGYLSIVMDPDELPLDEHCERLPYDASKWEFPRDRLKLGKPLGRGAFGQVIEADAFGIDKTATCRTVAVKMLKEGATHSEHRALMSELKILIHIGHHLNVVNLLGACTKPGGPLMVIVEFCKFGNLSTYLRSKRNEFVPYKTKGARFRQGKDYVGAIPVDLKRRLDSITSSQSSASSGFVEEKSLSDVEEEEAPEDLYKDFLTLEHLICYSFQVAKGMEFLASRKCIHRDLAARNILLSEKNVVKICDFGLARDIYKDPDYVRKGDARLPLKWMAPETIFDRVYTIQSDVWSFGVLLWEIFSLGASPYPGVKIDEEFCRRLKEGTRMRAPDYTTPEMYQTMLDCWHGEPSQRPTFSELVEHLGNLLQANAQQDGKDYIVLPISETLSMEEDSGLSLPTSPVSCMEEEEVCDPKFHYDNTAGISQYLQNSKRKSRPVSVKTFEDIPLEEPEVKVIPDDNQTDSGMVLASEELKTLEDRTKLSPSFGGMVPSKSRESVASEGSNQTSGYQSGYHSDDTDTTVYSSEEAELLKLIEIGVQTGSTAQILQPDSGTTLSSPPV

[4] = target: Mast/stem cell growth factor receptor Kit (Homo sapiens, UniProt P10721); assay: Binding affinity to KIT
Mast/stem cell growth factor receptor Kit, sequence (P10721 whole entry): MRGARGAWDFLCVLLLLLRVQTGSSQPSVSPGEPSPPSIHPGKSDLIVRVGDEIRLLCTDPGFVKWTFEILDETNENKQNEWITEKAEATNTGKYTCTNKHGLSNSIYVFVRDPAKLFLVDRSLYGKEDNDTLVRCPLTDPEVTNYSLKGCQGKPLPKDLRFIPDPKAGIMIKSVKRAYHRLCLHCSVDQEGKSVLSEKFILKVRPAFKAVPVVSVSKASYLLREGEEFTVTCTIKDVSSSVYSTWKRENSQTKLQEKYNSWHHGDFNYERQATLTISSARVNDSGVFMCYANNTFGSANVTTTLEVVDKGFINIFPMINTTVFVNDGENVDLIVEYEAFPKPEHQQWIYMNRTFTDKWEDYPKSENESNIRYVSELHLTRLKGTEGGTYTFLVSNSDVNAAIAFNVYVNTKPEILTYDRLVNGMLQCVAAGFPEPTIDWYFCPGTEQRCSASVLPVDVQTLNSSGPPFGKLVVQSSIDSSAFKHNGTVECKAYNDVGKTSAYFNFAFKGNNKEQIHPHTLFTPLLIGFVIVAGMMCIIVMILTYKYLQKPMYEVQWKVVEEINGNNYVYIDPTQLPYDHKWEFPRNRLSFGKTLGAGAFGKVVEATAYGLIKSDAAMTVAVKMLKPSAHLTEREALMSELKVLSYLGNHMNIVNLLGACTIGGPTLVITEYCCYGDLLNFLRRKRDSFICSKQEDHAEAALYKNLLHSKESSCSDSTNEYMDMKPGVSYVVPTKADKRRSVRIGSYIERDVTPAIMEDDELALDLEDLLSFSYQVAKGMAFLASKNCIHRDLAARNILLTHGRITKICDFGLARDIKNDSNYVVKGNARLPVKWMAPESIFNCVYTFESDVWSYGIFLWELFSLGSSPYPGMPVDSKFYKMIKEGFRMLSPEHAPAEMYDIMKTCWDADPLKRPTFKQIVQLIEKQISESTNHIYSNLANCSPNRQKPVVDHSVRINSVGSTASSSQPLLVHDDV

[5] = target: Proto-oncogene tyrosine-protein kinase receptor Ret (Homo sapiens, UniProt P07949); assay: Binding affinity to RET
Proto-oncogene tyrosine-protein kinase receptor Ret, sequence (P07949 whole entry): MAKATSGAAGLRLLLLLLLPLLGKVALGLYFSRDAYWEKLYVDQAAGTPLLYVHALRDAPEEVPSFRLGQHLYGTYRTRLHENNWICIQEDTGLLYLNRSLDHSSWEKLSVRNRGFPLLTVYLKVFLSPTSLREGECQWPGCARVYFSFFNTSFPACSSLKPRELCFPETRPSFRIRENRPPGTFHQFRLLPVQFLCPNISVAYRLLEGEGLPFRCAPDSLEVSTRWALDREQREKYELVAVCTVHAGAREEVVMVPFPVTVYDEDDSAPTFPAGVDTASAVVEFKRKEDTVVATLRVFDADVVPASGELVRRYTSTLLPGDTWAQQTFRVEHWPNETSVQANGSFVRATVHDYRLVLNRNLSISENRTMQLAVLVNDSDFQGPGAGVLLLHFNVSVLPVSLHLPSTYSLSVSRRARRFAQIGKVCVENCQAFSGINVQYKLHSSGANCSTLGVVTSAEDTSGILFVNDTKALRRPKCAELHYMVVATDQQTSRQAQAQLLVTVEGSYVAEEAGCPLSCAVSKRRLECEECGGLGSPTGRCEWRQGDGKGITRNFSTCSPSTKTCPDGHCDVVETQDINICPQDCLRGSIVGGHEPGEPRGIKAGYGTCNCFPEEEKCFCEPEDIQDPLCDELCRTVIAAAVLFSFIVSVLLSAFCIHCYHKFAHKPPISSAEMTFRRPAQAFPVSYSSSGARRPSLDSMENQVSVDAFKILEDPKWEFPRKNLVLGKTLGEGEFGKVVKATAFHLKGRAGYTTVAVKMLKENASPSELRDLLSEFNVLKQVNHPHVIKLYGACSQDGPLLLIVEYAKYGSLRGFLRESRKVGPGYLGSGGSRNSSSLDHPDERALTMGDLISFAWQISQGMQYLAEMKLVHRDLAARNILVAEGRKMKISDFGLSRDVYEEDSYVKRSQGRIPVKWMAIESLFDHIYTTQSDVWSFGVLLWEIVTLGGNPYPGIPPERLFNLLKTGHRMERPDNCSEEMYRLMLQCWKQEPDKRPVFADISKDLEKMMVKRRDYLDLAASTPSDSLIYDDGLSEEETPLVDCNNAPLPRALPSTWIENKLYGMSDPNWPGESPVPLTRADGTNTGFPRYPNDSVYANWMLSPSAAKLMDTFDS

[6] = target: Platelet-derived growth factor receptor beta (Homo sapiens, UniProt P09619); assay: Binding affinity to PDGFRbeta
Platelet-derived growth factor receptor beta, sequence (P09619 whole entry): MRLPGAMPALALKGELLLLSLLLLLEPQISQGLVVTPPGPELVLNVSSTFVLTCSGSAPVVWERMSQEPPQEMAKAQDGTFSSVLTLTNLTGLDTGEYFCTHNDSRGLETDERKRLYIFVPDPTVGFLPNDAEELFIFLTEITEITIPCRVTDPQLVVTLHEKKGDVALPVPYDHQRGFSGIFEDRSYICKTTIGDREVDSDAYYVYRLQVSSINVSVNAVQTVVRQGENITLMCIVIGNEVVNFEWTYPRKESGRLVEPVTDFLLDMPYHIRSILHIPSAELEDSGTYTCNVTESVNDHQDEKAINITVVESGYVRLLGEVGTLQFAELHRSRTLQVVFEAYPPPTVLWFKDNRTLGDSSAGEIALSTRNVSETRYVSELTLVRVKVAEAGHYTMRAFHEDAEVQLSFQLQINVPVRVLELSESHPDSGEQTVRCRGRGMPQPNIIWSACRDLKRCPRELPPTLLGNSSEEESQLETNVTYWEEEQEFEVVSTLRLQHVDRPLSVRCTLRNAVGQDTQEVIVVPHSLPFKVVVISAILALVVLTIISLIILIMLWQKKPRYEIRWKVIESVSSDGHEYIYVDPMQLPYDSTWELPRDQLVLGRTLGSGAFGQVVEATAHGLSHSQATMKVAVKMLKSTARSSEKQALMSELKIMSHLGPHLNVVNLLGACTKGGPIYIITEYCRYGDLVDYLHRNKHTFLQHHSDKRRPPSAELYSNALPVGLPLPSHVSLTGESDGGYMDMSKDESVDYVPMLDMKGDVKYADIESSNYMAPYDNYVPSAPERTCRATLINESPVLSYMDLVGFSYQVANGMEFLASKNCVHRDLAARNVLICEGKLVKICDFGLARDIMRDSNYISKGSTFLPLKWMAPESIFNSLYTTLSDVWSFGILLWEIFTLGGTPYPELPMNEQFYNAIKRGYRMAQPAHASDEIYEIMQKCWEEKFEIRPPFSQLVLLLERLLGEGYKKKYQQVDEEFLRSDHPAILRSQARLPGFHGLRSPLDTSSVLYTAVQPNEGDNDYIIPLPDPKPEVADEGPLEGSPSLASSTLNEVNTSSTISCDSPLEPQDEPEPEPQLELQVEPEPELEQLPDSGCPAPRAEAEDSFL

[7] = Cmax in nude mouse at 10 mg/kg, po; assay type: ADME, organism-based; set-up: dose 10 mg/kg, route oral; settings: in vivo
Mus musculus [8] = assay: AUC in nude mouse at 10 mg/kg, po; assay type: ADME, organism-based, Plasma; set-up: dose 10 mg/kg, route oral; settings: in vivo
[9] = Half life in nude mouse at 10 mg/kg, po; assay type: ADME, organism-based; set-up: dose 10 mg/kg, route oral; settings: in vivo
MV4-11 [10] = assay: Antitumor activity against human MV411 cells in xenografted athymic nude mouse model assessed as decrease in tumor size at 10 mg/kg, po qd for 28 days measured after 29 to 36 days; assay type: functional
MV4-11 [11] = assay: Antitumor activity against human MV411 cells in xenografted athymic nude mouse model assessed as decrease in tumor size at 10 mg/kg, po qd for 28 days measured after 36 to 56 days; assay type: functional, organism-based; set-up: dose 10 mg/kg
Mus musculus [12] = assay: Toxicity in human MV411 cells in xenografted athymic nude mouse model assessed as change in body weight at 10 mg/kg, po qd for 28 days; assay type: organism-based, MV4-11; set-up: dose 10 mg/kg, route oral; settings: in vivo, 672 h
MV4-11 [13] = assay: Antitumor activity against human MV411 cells in xenografted athymic nude mouse model assessed as decrease in tumor size at 30 mg/kg, po qd for 28 days; assay type: functional, organism-based; set-up: dose 30 mg/kg
[14] = target: Macrophage colony-stimulating factor 1 receptor (Homo sapiens, UniProt P07333); assay: Binding affinity to CSF1R
MV4-11 [15] = assay: Antitumor activity against human MV411 cells in xenografted athymic nude mouse model assessed as decrease in tumor size at 10 mg/kg, po qd for 28 days; assay type: functional, organism-based; set-up: dose 10 mg/kg

SMILES: CC(C)(C)c1cc(NC(=O)Nc2ccc(C(=O)Nc3ccncc3)cc2)no1
- IC50 (MV4-11 [1]): 414 nM
- Kd [2]: 38.4 nM

SMILES: CC(C)(C)c1cc(NC(=O)Nc2ccc(NC(=O)c3cccnc3)cc2)no1
- IC50 (MV4-11 [1]): 159 nM
- Kd [2]: 15 nM

SMILES: Cc1ccc2sc(C(=O)Nc3ccc(NC(=O)Nc4cc(C(C)(C)C)on4)cc3)cc2c1
- IC50 (MV4-11 [1]): 0.85 nM
- Kd [2]: 0.77 nM

SMILES: CC(C)(C)c1cc(NC(=O)Nc2ccc(NC(=O)Cc3ccccc3)cc2)no1
- IC50 (MV4-11 [1]): 1090 nM
- Kd [2]: 510 nM

SMILES: CC(C)(C)c1cc(NC(=O)Nc2ccc(NC(=O)c3ccccc3)cc2)no1
- IC50 (MV4-11 [1]): 30 nM
- Kd [2]: 0.98 nM

SMILES: CC(C)(C)c1cc(NC(=O)Nc2ccc(NC(=O)c3ccccn3)cc2)no1
- IC50 (MV4-11 [1]): 1.6 nM
- Kd [2]: 0.76 nM

SMILES: CC(C)(C)c1cc(NC(=O)Nc2ccc(NC(=O)c3cccc(O)n3)cc2)no1
- IC50 (MV4-11 [1]): 46.7 nM
- Kd [2]: 2.5 nM

SMILES: CC(C)(C)c1cc(NC(=O)Nc2ccc(C(=O)Nc3ccccc3)cc2)no1
- IC50 (MV4-11 [1]): 101 nM
- Kd [2]: 7.4 nM

SMILES: CC(C)(C)c1cc(NC(=O)Nc2ccc(NC(=O)C3CCNCC3)cc2)no1
- IC50 (MV4-11 [1]): 10500 nM
- Kd [2]: 240 nM

SMILES: CC(C)(C)c1cc(NC(=O)Nc2ccc(NC(=O)c3cc4ccccc4cn3)cc2)no1
- IC50 (MV4-11 [1]): 0.29 nM
- Kd [3]: > 200 nM
- Kd [4]: 1.8 nM
- Kd [5]: 7.3 nM
- Kd [6]: 7 nM
- Cmax [7]: 1310 nM
- AUC (Mus musculus [8]): 4.25 µM·h
- half-life [9]: 2.2 h
- Activity (MV4-11 [10]): 90 mm3
- Activity (MV4-11 [11]): inactive
- Activity (Mus musculus [12]): < 5%

SMILES: CC(C)(C)c1cc(NC(=O)Nc2ccc(NC(=O)c3ccc4ccccc4c3)cc2)no1
- IC50 (MV4-11 [1]): 3.1 nM
- Kd [2]: 0.75 nM

SMILES: CC(C)(C)c1cc(NC(=O)Nc2ccc(NC(=O)c3nccc4ccccc34)cc2)no1
- IC50 (MV4-11 [1]): 2.8 nM
- Kd [2]: 0.74 nM

SMILES: CC(C)(C)c1cc(NC(=O)Nc2ccc(NC(=O)c3ccncc3)cc2)no1
- IC50 (MV4-11 [1]): 132 nM
- Kd [2]: 10.1 nM

SMILES: CC(C)(C)c1cc(NC(=O)Nc2ccc(C(=O)Nc3ccccn3)cc2)no1
- IC50 (MV4-11 [1]): 104 nM
- Kd [2]: 8.15 nM

SMILES: CC(C)(C)c1cc(NC(=O)Nc2ccc(C(=O)Nc3cccnc3)cc2)no1
- IC50 (MV4-11 [1]): 199 nM
- Kd [2]: 25 nM

SMILES: CCN(CC)CCNC(=O)c1c(C)[nH]c(/C=C2\C(=O)Nc3ccc(F)cc32)c1C
- Activity (MV4-11 [10]): Active
- Activity (MV4-11 [13]): Active

SMILES: CC(C)(C)c1cc(NC(=O)Nc2ccc(NC(=O)c3cn4c(n3)sc3ccccc34)cc2)no1
- IC50 (MV4-11 [1]): 0.44 nM
- Kd [3]: > 200 nM
- Kd [4]: 7.5 nM
- Kd [14]: 10 nM
- Kd [5]: 3 nM
- Kd [6]: 2.2 nM
- Cmax [7]: 2360 nM
- AUC (Mus musculus [8]): 13.2 µM·h
- half-life [9]: 2.3 h
- Activity (MV4-11 [10]): 90 mm3
- Activity (MV4-11 [11]): inactive
- Activity (MV4-11 [15]): Active
- Activity (Mus musculus [12]): < 5%
- Kd [2]: 1.6 nM

SMILES: CC(C)(C)c1cc(NC(=O)Nc2ccc(NC(=O)c3ncccc3O)cc2)no1
- IC50 (MV4-11 [1]): 0.71 nM
- Kd [4]: 0.96 nM
- Kd [14]: 4.4 nM
- Kd [5]: 4.7 nM
- Kd [6]: 2.6 nM
- Kd [2]: 0.74 nM
